Assay results taken from patent publication EP2961847B1, “NITRITE-REDUCTASE (NIRB) AS POTENTIAL ANTI-TUBERCULAR TARGET AND A METHOD TO DETECT THE SEVERITY OF TUBERCULOSIS DISEASE” (priority 2013, dated 2014).
Where two headings read alike, the source gives them in different places.

Tests used:
[1] = system: Mycobacterium tuberculosis
[2] = system: THP-1 macrophages; test: Cytotoxic effect on THP-1 macrophages, fluorescence microscopy after DAPI staining; format: cell-based, Human; details: 100 µM; images after 10th day of inhibitor treatment; compared with untreated control
Procedure: THP-1 macrophage cells were grown on cover slip in 8 well microplates and washed twice with chilled methanol followed by staining with 4', 6-diamidino-2-phenylindole (DAPI) at final concentration of 300 nM. Macrophage cells were kept for 15 min at room temperature under dark condition. After incubation, cells were washed three times with distilled water and analyzed under the fluorescence microscope (Leitz Wetzlar model, Germany) at 350 nm excitation and 450 nm emission wavelengths (400 X) using 'A'filter.
To investigate the host THP-1 macrophage cells condition due to its exposure to p-HMB inhibitor before considering its effective and specific inhibition of bacilli in macrophage infection models, fluorescence microscopic picture of THP-1 cells treated with p-HMB (100 µM) was compared with the untreated control after staining with DAPI(4',6-diamidino-2-phenylindole). Fluorescence images were taken after 10th day of inhibitor treatment.

[3] = system: M. tuberculosis in THP-1 macrophage; format: cell-based, Mycobacterium tuberculosis

| SMILES | cell count reduced (log difference) [1] | inhibition of bacilli grown under ammonia [1] | cytotoxic effect on macrophage (integrity of nuclear structure) [2] | decrease in intracellular viable cell count (log difference compared to control) ([3]; […], cell counts on 10th day PI, control without inhibitor) | reduction of bacilli count ([3]; summary statement: in-vitro and ex-vivo conditions) | decrease in intracellular viable cell count (log difference compared to control) [3] |
| --- | --- | --- | --- | --- | --- | --- |
| O=C(O)c1cc[c]([Hg][OH])cc1 [p-HMB, para-hydroxy mercuric benzoate] | ~2.5 log | no inhibition was observed | without exhibiting any cytotoxic effects on macrophage | ~2 log | ~2 log cfu | – |
| [N-]=[N+]=[N-] [Azide] | – | – | – | – | – | ~1.5 log |
| CS(=N)(=O)CC[C@H](N)C(=O)O (stereo partly drawn) [L-MSO, L-methionine sulfoximine] | – | – | – | – | – | ~2.5 log |
